From patent US20220153734A1, “Pyrazolopyridine Compounds For IRE1 Inhibition” (Optikira, LLC, priority 2019, published 2022)

What was measured:
IRE1α = molecular target: T1, IRE1α (Homo sapiens, UniProt O75460); assay: Biochemical assay: inhibition of RNase activity of IRE1α; conditions: enzyme 0.325 nM, substrate 100 nM, 20 minutes
T1 construct: purchased Signal Chem E31-11G
How it was run: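 RNase cleavage monitored as dequenching of a 5′ Alexa Fluor 647/3′ quencher RNA oligo (100 nM), stopped with 5 M urea after 20 min at room temperature. Enzyme 0.325 nM, preceded by 30 min compound pre-incubation; buffer Tris/MgCl2/KCl/DTT/Tween, 4% DMSO final. IC50 from curve fit of % inhibition.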

[1] = test system: ARPE-19 cells stably expressing XBP1 (a.a. 1-376); assay: Cellular XBP1 splicing assay (NanoLuc luciferase, thapsigargin); assay type: cell-based; conditions: Homo sapiens, ARPE-19, 4 h, thapsigargin 150 nM
How it was run: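 ARPE-19 cells carrying an XBP1(1-376)-NanoLuc splicing reporter were pretreated with compound (10-point ½-log series, 0.117% DMSO) for 30 min, then stressed with 150 nM thapsigargin for 4 h at 37° C. Luminescence was read, and IC50 values came from sigmoidal fits of percent inhibition of control.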

T1 sequence (O75460 468-977 limits assumed): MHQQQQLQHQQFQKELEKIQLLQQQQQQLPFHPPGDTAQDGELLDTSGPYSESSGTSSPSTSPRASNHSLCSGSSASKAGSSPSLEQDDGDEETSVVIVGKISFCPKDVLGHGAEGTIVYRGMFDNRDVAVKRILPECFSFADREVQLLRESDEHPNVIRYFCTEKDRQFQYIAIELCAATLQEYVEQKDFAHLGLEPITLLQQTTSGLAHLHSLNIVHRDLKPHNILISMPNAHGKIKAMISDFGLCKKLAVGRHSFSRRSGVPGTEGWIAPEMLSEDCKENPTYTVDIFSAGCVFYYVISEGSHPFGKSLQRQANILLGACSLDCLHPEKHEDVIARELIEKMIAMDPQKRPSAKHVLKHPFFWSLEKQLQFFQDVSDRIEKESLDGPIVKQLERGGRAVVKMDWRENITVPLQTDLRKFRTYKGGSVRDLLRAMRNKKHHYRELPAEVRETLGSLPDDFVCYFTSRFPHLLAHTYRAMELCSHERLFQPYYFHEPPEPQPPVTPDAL

IC50 (IRE1α) [nM] | IC50 [1] [nM] | Structure (SMILES)
6.1 | 4 | COCCN[C@H]1CC[C@H](c2cnc(N)c3c(-c4cc(F)c(NS(=O)(=O)c5ccccc5Cl)cc4F)nn(C(C)C)c32)CC1 [Compound A19, N-(4-(4-amino-1-isopropyl-7-((1r,4r)-4-((2-methoxyethyl)amino)cyclohexyl)-1H-pyrazolo[4,3-c]pyridin-3-yl)-2,5-difluorophenyl)-2-chlorobenzenesulfonamide]
1.2 | 13 | COCCN[C@H]1CC[C@H](c2cnc(N)c3c(-c4cc(F)c(NS(=O)(=O)Cc5ccccc5Cl)cc4F)nn(C(C)C)c32)CC1 [Compound A20, N-(4-(4-amino-1-isopropyl-7-((1r,4r)-4-((2-methoxyethyl)amino)cyclohexyl)-1H-pyrazolo[4,3-c]pyridin-3-yl)-2,5-difluorophenyl)-1-(2-chlorophenyl)methanesulfonamide]
4.7 | 3800 | COCCN[C@H]1CC[C@H](c2cnc(N)c3c(-c4cc(F)c(NS(=O)(=O)c5cc(C#N)ccc5F)cc4F)nn(C(C)C)c32)CC1 [Compound A21, N-(4-(4-amino-1-isopropyl-7-((1r,4r)-4-((2-methoxyethyl)amino)cyclohexyl)-1H-pyrazolo[4,3-c]pyridin-3-yl)-2,5-difluorophenyl)-5-cyano-2-fluorobenzenesulfonamide]
1.8 | 15 | CC(C)n1nc(-c2cc(F)c(NS(=O)(=O)Cc3ccccc3F)cc2F)c2c(N)ncc([C@H]3CC[C@H](N(C)C)CC3)c21 [Compound A22, N-(4-(4-amino-7-((1r,4r)-4-(dimethylamino)cyclohexyl)-1-isopropyl-1H-pyrazolo[4,3-c]pyridin-3-yl)-2,5-difluorophenyl)-1-(2-fluorophenyl)methanesulfonamide]
9.7 | 160 | COCCN[C@H]1CC[C@H](c2cnc(N)c3c(-c4cc(F)c(NS(=O)(=O)c5c(F)cccc5F)cc4F)nn(C(C)C)c32)CC1 [Compound A23, N-(4-(4-amino-1-isopropyl-7-((1r,4r)-4-((2-methoxyethyl)amino)cyclohexyl)-1H-pyrazolo[4,3-c]pyridin-3-yl)-2,5-difluorophenyl)-2,6-difluorobenzenesulfonamide]
5.4 | 82 | COCCN[C@H]1CC[C@H](c2cnc(N)c3c(-c4cc(F)c(NS(=O)(=O)c5ccc(F)cc5F)cc4F)nn(C(C)C)c32)CC1 [Compound A24, N-(4-(4-amino-1-isopropyl-7-((1r,4r)-4-((2-methoxyethyl)amino)cyclohexyl)-1H-pyrazolo[4,3-c]pyridin-3-yl)-2,5-difluorophenyl)-2,4-difluorobenzenesulfonamide]
9 | 25 | COCCN[C@H]1CC[C@H](c2cnc(N)c3c(-c4cc(F)c(NS(=O)(=O)c5cccc(F)c5F)cc4F)nn(C(C)C)c32)CC1 [Compound A25, N-(4-(4-amino-1-isopropyl-7-((1r,4r)-4-((2-methoxyethyl)amino)cyclohexyl)-1H-pyrazolo[4,3-c]pyridin-3-yl)-2,5-difluorophenyl)-2,3-difluorobenzenesulfonamide]
1.5 | 13 | COCCN[C@H]1CC[C@H](c2cnc(N)c3c(-c4cc(F)c(NS(=O)(=O)Cc5ccccc5F)cc4F)nn(C(C)C)c32)CC1 [Compound A26, N-(4-(4-amino-1-isopropyl-7-((1r,4r)-4-((2-methoxyethyl)amino)cyclohexyl)-1H-pyrazolo[4,3-c]pyridin-3-yl)-2,5-difluorophenyl)-1-(2-fluorophenyl)methanesulfonamide]
13 | 13 | COCCN(CCOC)[C@H]1CC[C@H](c2cnc(N)c3c(-c4cc(F)c(NS(=O)(=O)c5cc(OC)ccc5F)cc4F)nn(C(C)C)c32)CC1 [Compound A27, N-(4-(4-amino-7-((1r,4r)-4-(bis(2-methoxyethyl)amino)cyclohexyl)-1-isopropyl-1H-pyrazolo[4,3-c]pyridin-3-yl)-2,5-difluorophenyl)-2-fluoro-5-methoxybenzenesulfonamide]
2.9 | 6.9 | COCCN[C@H]1CC[C@H](c2cnc(N)c3c(-c4cc(F)c(NS(=O)(=O)c5cc(OC)ccc5F)cc4F)nn(C(C)C)c32)CC1 [Compound A28]
32 | 500 | COCCN(CCOC)[C@H]1CC[C@H](c2cnc(N)c3c(-c4cc(F)c(NS(=O)(=O)c5cccc(C(F)(F)F)c5)cc4F)nn(C(C)C)c32)CC1 [Compound A29, N-(4-(4-amino-7-((1r,4r)-4-(bis(2-methoxyethyl)amino)cyclohexyl)-1-isopropyl-1H-pyrazolo[4,3-c]pyridin-3-yl)-2,5-difluorophenyl)-3-(trifluoromethyl)benzenesulfonamide]
3.8 | 93 | COCCN[C@H]1CC[C@H](c2cnc(N)c3c(-c4cc(F)c(NS(=O)(=O)c5cccc(C(F)(F)F)c5)cc4F)nn(C(C)C)c32)CC1 [Compound A30, N-(4-(4-amino-1-isopropyl-7-((1r,4r)-4-((2-methoxyethyl)amino)cyclohexyl)-1H-pyrazolo[4,3-c]pyridin-3-yl)-2,5-difluorophenyl)-3-(trifluoromethyl)benzenesulfonamide]
8.6 | 39 | COCCN[C@H]1CC[C@H](c2cnc(N)c3c(-c4cc(F)c(NS(=O)(=O)c5cc(F)ccc5F)cc4F)nn(C(C)C)c32)CC1 [Compound A31, N-(4-(4-amino-1-isopropyl-7-((1r,4r)-4-((2-methoxyethyl)amino)cyclohexyl)-1H-pyrazolo[4,3-c]pyridin-3-yl)-2,5-difluorophenyl)-2,5-difluorobenzenesulfonamide]
17 | 110 | COCCN[C@H]1CC[C@H](c2cnc(N)c3c(-c4cc(F)c(NS(=O)(=O)c5ccc(F)cc5)cc4F)nn(C(C)C)c32)CC1 [Compound A32, N-(4-(4-amino-1-isopropyl-7-((1r,4r)-4-((2-methoxyethyl)amino)cyclohexyl)-1H-pyrazolo[4,3-c]pyridin-3-yl)-2,5-difluorophenyl)-4-fluorobenzenesulfonamide]
60 | 55 | COCCN(CCOC)[C@H]1CC[C@H](c2cnc(N)c3c(-c4cc(F)c(NS(=O)(=O)c5ccccc5F)cc4F)nn(C(C)C)c32)CC1 [Compound A35, N-(4-(4-amino-7-((1r,4r)-4-(bis(2-methoxyethyl)amino)cyclohexyl)-1-isopropyl-1H-pyrazolo[4,3-c]pyridin-3-yl)-2,5-difluorophenyl)-2-fluorobenzenesulfonamide]
13 | 18 | COCCN(C)[C@H]1CC[C@H](c2cnc(N)c3c(-c4cc(F)c(NS(=O)(=O)c5ccccc5F)cc4F)nn(C(C)C)c32)CC1 [Compound A36, N-(4-(4-amino-1-isopropyl-7-((1r,4r)-4-((2-methoxyethyl)(methyl)amino)cyclohexyl)-1H-pyrazolo[4,3-c]pyridin-3-yl)-2,5-difluorophenyl)-2-fluorobenzenesulfonamide]
12 | 20 | COCCN[C@H]1CC[C@H](c2cnc(N)c3c(-c4cc(F)c(NS(=O)(=O)c5ccccc5F)cc4F)nn(C(C)C)c32)CC1 [Compound A37, N-(4-(4-amino-1-isopropyl-7-((1r,4r)-4-((2-methoxyethyl)amino)cyclohexyl)-1H-pyrazolo[4,3-c]pyridin-3-yl)-2,5-difluorophenyl)-2-fluorobenzenesulfonamide]
